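96-well plates; 48 h exposure; 5 concentrations. Endpoints by linear interpolation between flanking doses. Not reached: highest tested concentration assigned. At the GI50, growth is halved.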 The source made the active and inactive calls. Rule as the data show it: active = GI50 up to about 1.1 µM and inactive = higher.
Assays:
Experiment in all cases: NCI tumour cell line growth inhibition, 48 h
OVCAR-4 = system: OVCAR-4
RPMI-8226 = system: RPMI-8226
NCI/ADR-RES = system: NCI/ADR-RES
HOP-92 = system: HOP-92
SN12C = system: SN12C
PC-3 = system: PC-3
HL-60 = system: HL-60
LOX IMVI = system: LOX IMVI
CAKI-1 = system: CAKI-1
MDA-N = system: MDA-N
OVCAR-5 = system: OVCAR-5
UACC-62 = system: UACC-62
SNB-75 = system: SNB-75
KM12 = system: KM12
Hs-578T = system: Hs-578T
MDA-MB-231 = system: MDA-MB-231
SF-268 = system: SF-268
HCT-116 = system: HCT-116
MOLT-4 = system: MOLT-4
CCRF-CEM = system: CCRF-CEM

Row | SMILES | GI50 (OVCAR-4) | GI50 (RPMI-8226) | GI50 (NCI/ADR-RES) | GI50 (HOP-92) | GI50 (SN12C) | GI50 (PC-3) | GI50 (HL-60) | GI50 (LOX IMVI) | GI50 (CAKI-1) | GI50 (MDA-N) | GI50 (OVCAR-5) | GI50 (UACC-62) | GI50 (SNB-75) | GI50 (KM12) | GI50 (Hs-578T) | GI50 (MDA-MB-231) | GI50 (SF-268) | GI50 (HCT-116) | GI50 (MOLT-4) | GI50 (CCRF-CEM)
1 | CCOC(=O)CCC(NC(=O)c1ccc(Nc2nc3ccccc3nc2C(=O)OCC)s1)C(=O)OCC (stereo not drawn) | 37.2 µM (inactive) | > 100 µM (inactive) | 19.9 µM (inactive) | > 100 µM (inactive) | > 100 µM (inactive) | > 100 µM (inactive) | 36.6 µM (inactive) | > 100 µM (inactive) | 81.3 µM (inactive) | > 100 µM (inactive) | > 100 µM (inactive) | 59.2 µM (inactive) | > 100 µM (inactive) | 85.1 µM (inactive) | 56.4 µM (inactive) | 67.1 µM (inactive) | 98.4 µM (inactive) | > 100 µM (inactive) | > 100 µM (inactive) | –
2 | COc1ccc2[nH]c3c(C)c4cnccc4c(C)c3c2c1 | 1.94 µM (inactive) | 2.95 µM (inactive) | 1.22 µM (inactive) | 5.4 µM (inactive) | 2.24 µM (inactive) | 2.99 µM (inactive) | 2.28 µM (inactive) | – | 6.27 µM (inactive) | 1.85 µM (inactive) | 3.11 µM (inactive) | > 10 µM (inactive) | 2.25 µM (inactive) | 1.31 µM (inactive) | 5.55 µM (inactive) | 2.8 µM (inactive) | 2.75 µM (inactive) | 1.25 µM (inactive) | 0.571 µM (active) | 2.07 µM (inactive)
3 | O=C(O)Cc1ccc(/N=N/c2c(O)c(C(=O)O)cc3ccccc23)cc1 | > 100 µM (inactive) | > 100 µM (inactive) | > 100 µM (inactive) | > 100 µM (inactive) | > 100 µM (inactive) | > 100 µM (inactive) | > 100 µM (inactive) | – | > 100 µM (inactive) | > 100 µM (inactive) | > 100 µM (inactive) | > 100 µM (inactive) | > 100 µM (inactive) | > 100 µM (inactive) | > 100 µM (inactive) | > 100 µM (inactive) | > 100 µM (inactive) | > 100 µM (inactive) | > 100 µM (inactive) | > 100 µM (inactive)
4 | CC1(C(=O)O)CCCC1C(=O)O (stereo not drawn) | > 100 µM (inactive) | 4.51 µM (inactive) | > 100 µM (inactive) | > 100 µM (inactive) | > 100 µM (inactive) | > 100 µM (inactive) | > 100 µM (inactive) | > 100 µM (inactive) | > 100 µM (inactive) | > 100 µM (inactive) | > 100 µM (inactive) | > 100 µM (inactive) | – | > 100 µM (inactive) | > 100 µM (inactive) | > 100 µM (inactive) | > 100 µM (inactive) | > 100 µM (inactive) | > 100 µM (inactive) | > 100 µM (inactive)
5 | COc1cc(/C=C2\Cc3cc(OC)c(OC)cc3C2=O)cc(OC)c1 | > 45.4 µM (inactive) | > 33.6 µM (inactive) | 0.904 µM (active) | 22.8 µM (inactive) | > 74.1 µM (inactive) | > 79.1 µM (inactive) | 3.18 µM (inactive) | > 55.7 µM (inactive) | > 46.8 µM (inactive) | 0.771 µM (active) | > 100 µM (inactive) | 14.2 µM (inactive) | 9.53 µM (inactive) | – | 22 µM (inactive) | 36.3 µM (inactive) | 45.9 µM (inactive) | 21 µM (inactive) | > 100 µM (inactive) | > 100 µM (inactive)
6 | COc1cc2c(cc1OCCCN1CCOCC1)N=C[C@@H]1CCCN1C2=O | 13.3 µM (inactive) | 2.21 µM (inactive) | 35 µM (inactive) | 2.37 µM (inactive) | 23.6 µM (inactive) | 18.6 µM (inactive) | 5.74 µM (inactive) | 4.48 µM (inactive) | 5.82 µM (inactive) | 6.89 µM (inactive) | 15.5 µM (inactive) | 12.8 µM (inactive) | – | 13.4 µM (inactive) | 16.9 µM (inactive) | 11 µM (inactive) | 7.53 µM (inactive) | 12.8 µM (inactive) | 4.91 µM (inactive) | 2.75 µM (inactive)
7 | CCOC(=O)C(CS)NC(=O)CCCCCCCC(=O)O (stereo not drawn) | > 100 µM (inactive) | > 100 µM (inactive) | > 100 µM (inactive) | > 100 µM (inactive) | > 100 µM (inactive) | > 100 µM (inactive) | > 100 µM (inactive) | > 100 µM (inactive) | > 100 µM (inactive) | > 100 µM (inactive) | > 100 µM (inactive) | > 100 µM (inactive) | 0.724 µM (active) | > 100 µM (inactive) | > 100 µM (inactive) | > 100 µM (inactive) | – | > 100 µM (inactive) | > 100 µM (inactive) | 41.5 µM (inactive)

Source: ChEMBL document CHEMBL1201862, “PubChem BioAssay data set” (2004)
